Reference: patent US9695155B2, “Herbicidal substituted pyrimidinyloxy benzene compounds” (E. I. DU PONT DE NEMOURS AND COMPANY, priority 2013, dated 2017)

Experiments:
[1] = test system: barnyardgrass; experiment: Test A preemergence; format: in vivo, Echinochloa crus-galli; settings: for Plant response rating, Barnyardgrass: 0 to 100 scale where 0 is no effect and 100 is complete control
Procedure, shortened: (§1)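 Visual 0–100 rating (100 = complete control) taken about 10 d post-treatment relative to untreated checks. Preemergence: directed soil spray on sown loam/sand pots. Postemergence: seedlings 2–10 cm, 1–2 leaf. Non-phytotoxic solvent formulation with surfactant.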

[2] = test system: kochia; experiment: Test A preemergence; format: in vivo, Kochia scoparia; settings: for Plant response rating, Kochia: 0 to 100 scale where 0 is no effect and 100 is complete control
Text: (§2) Seeds of plant species selected from barnyardgrass (Echinochloa crus-galli), kochia (Kochia scoparia), ragweed (common ragweed, Ambrosia elatior), Italian ryegrass (Lolium multiflorum), large (Lg) crabgrass (Digitaria sanguinalis), giant foxtail (Setaria faberii), morningglory (Ipomoea spp.), pigweed (Amaranthus retroflexus), velvetleaf (Abutilon theophrasti), wheat (Triticum aestivum), and corn (Zea mays) were planted into a blend of loam soil and sand and treated preemergence with a directed soil spray using test chemicals formulated in a non-phytotoxic solvent mixture which included a surfactant.
(§3) At the same time, plants selected from these crop and weed species and also blackgrass (Alopecurus myosuroides), and galium (catchweed bedstraw, Galium aparine) were planted in pots containing the same blend of loam soil and sand and treated with postemergence applications of test chemicals formulated in the same manner. Plants ranged in height from 2 to 10 cm and were in the one- to two-leaf stage for the postemergence treatment. Treated plants and untreated controls were maintained in a greenhouse for approximately 10 days, after which time all treated plants were compared to untreated controls and visually evaluated for injury. Plant response ratings, summarized in Table A, are based on a 0 to 100 scale where 0 is no effect and 100 is complete control. A dash (-) response means no test result.

[3] = test system: ragweed; experiment: Test A preemergence; format: in vivo, Ambrosia elatior; settings: for Plant response rating, Ragweed: 0 to 100 scale where 0 is no effect and 100 is complete control
Text: as §2, §3

[4] = test system: Italian ryegrass; experiment: Test A preemergence; format: in vivo, Lolium multiflorum; settings: for Plant response rating, Ryegrass, Italian: 0 to 100 scale where 0 is no effect and 100 is complete control
Procedure, shortened: as §1

[5] = test system: giant foxtail; experiment: Test A preemergence; format: in vivo, Setaria faberii; settings: for Plant response rating, Foxtail, Giant: 0 to 100 scale where 0 is no effect and 100 is complete control
Procedure, shortened: as §1

[6] = test system: pigweed; experiment: Test A preemergence; format: in vivo, Amaranthus retroflexus; settings: for Plant response rating, Pigweed: 0 to 100 scale where 0 is no effect and 100 is complete control
Procedure, shortened: as §1

[7] = test system: barnyardgrass; experiment: Test A postemergence; format: in vivo, Echinochloa crus-galli; settings: for Plant response rating, Barnyardgrass: 0 to 100 scale, 0 no effect, 100 complete control
Procedure, shortened: as §1

[8] = test system: kochia; experiment: Test A postemergence; format: in vivo, Kochia scoparia; settings: for Plant response rating, Kochia: 0 to 100 scale, 0 no effect, 100 complete control
Text: as §2, §3

[9] = test system: ragweed; experiment: Test A postemergence; format: in vivo, Ambrosia elatior; settings: for Plant response rating, Ragweed: 0 to 100 scale, 0 no effect, 100 complete control
Text: as §2, §3

[10] = test system: Italian ryegrass; experiment: Test A postemergence; format: in vivo, Lolium multiflorum; settings: for Plant response rating, Ryegrass, Italian: 0 to 100 scale, 0 no effect, 100 complete control
Procedure, shortened: as §1

[11] = test system: giant foxtail; experiment: Test A postemergence; format: in vivo, Setaria faberii; settings: for Plant response rating, Foxtail, Giant: 0 to 100 scale, 0 no effect, 100 complete control
Procedure, shortened: as §1

[12] = test system: pigweed; experiment: Test A postemergence; format: in vivo, Amaranthus retroflexus; settings: for Plant response rating, Pigweed: 0 to 100 scale, 0 no effect, 100 complete control
Procedure, shortened: as §1

[13] = test system: wheat; experiment: Test A postemergence; format: in vivo, Triticum aestivum; settings: for Plant response rating, Wheat: 0 to 100 scale, 0 no effect, 100 complete control
Procedure, shortened: as §1

[14] = test system: corn; experiment: Test A postemergence; format: in vivo, Zea mays; settings: for Plant response rating, Corn: 0 to 100 scale, 0 no effect, 100 complete control
Procedure, shortened: as §1

[15] = test system: blackgrass; experiment: Test A postemergence; format: in vivo, Alopecurus myosuroides; settings: for Plant response rating, Blackgrass: 0 to 100 scale, 0 no effect, 100 complete control
Text: as §2, §3

[16] = test system: galium; experiment: Test A postemergence; format: in vivo, Galium aparine; settings: for Plant response rating, Galium: 0 to 100 scale, 0 no effect, 100 complete control
Procedure, shortened: as §1

[17] = test system: rice; experiment: Test B flooded paddy test; format: in vivo, Oryza sativa; settings: Flood, 250 g ai/ha; 0 to 100 scale where 0 is no effect and 100 is complete control
Procedure, shortened: (§4)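 Scores from 0 (no effect) to 100 (complete control) are visual comparisons with controls, taken 13 to 15 days after compound was applied into floodwater 3 cm deep around 2-leaf plants.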

[18] = test system: sedge, umbrella; experiment: Test B flooded paddy test; format: in vivo, Cyperus difformis; settings: Flood, 250 g ai/ha; 0 to 100 scale where 0 is no effect and 100 is complete control
Procedure, shortened: as §4

[19] = test system: Heteranthera limosa; experiment: Test B flooded paddy test; format: in vivo; settings: Flood, 250 g ai/ha; 0 to 100 scale where 0 is no effect and 100 is complete control
Procedure, shortened: as §4

[20] = test system: barnyardgrass; experiment: Test B flooded paddy test; format: in vivo, Echinochloa crus-galli; settings: Flood, 250 g ai/ha; 0 to 100 scale where 0 is no effect and 100 is complete control
Procedure, shortened: as §4

[21] = 31 g ai/ha, visual, approximately 10 days
[22] = 125 g ai/ha, 0 to 100 scale where 0 is no effect and 100 is complete control
[23] = 1000 g ai/ha, 0 to 100 scale, 0 no effect, 100 complete control, approx. 10 days

SMILES: NC(=O)c1cccc(Oc2ncc(Cl)cn2)c1-n1cc(C(F)(F)F)cn1 [Compound 278]
- Plant response rating, Barnyardgrass [1, 21]: 0
- Barnyardgrass plant response rating (0 to 100 scale, 0 is no effect, 100 is complete control) ([1]; 125 g ai/ha): 0
- Plant response rating, Kochia [2, 21]: 0
- Kochia plant response rating (0 to 100 scale) ([2]; 125 g ai/ha): 0
- Plant response rating, Ragweed [3, 21]: 0
- Ragweed plant response rating (0 to 100 scale) ([3]; 125 g ai/ha): 0
- Plant response rating, Ryegrass, Italian [4, 21]: 0
- Ryegrass, Italian plant response rating (0 to 100 scale) ([4]; 125 g ai/ha): 0
- Plant response rating, Foxtail, Giant [5, 21]: 0
- Foxtail, Giant plant response rating (0 to 100 scale) ([5]; 125 g ai/ha): 0
- Plant response rating, Pigweed [6, 21]: 0
- Pigweed plant response rating (0 to 100 scale) ([6]; 125 g ai/ha): 10
- Plant response rating, Barnyardgrass ([7]; 31 g ai/ha): 0
- Plant response rating, Barnyardgrass ([7]; 125 g ai/ha): 0
- Plant response rating, Kochia ([8]; 31 g ai/ha): 0
- Plant response rating, Kochia ([8]; 125 g ai/ha): 0
- Plant response rating, Ragweed ([9]; 31 g ai/ha): 0
- Plant response rating, Ragweed ([9]; 125 g ai/ha): 10
- Plant response rating, Ryegrass, Italian ([10]; 31 g ai/ha): 0
- Plant response rating, Ryegrass, Italian ([10]; 125 g ai/ha): 0
- Plant response rating, Foxtail, Giant ([11]; 31 g ai/ha): 0
- Plant response rating, Foxtail, Giant ([11]; 125 g ai/ha): 0
- Plant response rating, Pigweed ([12]; 31 g ai/ha): 0
- Plant response rating, Pigweed ([12]; 125 g ai/ha): 10
- Plant response rating, Wheat ([13]; 31 g ai/ha): 0
- Plant response rating, Wheat ([13]; 125 g ai/ha): 0
- Plant response rating, Corn ([14]; 31 g ai/ha): 0
- Plant response rating, Corn ([14]; 125 g ai/ha): 0
- Plant response rating, Blackgrass ([15]; 31 g ai/ha): 0
- Plant response rating, Blackgrass ([15]; 125 g ai/ha): 0
- Plant response rating, Galium ([16]; 31 g ai/ha): 0
- Plant response rating, Galium ([16]; 125 g ai/ha): 10
- Plant response rating, Rice [17]: 0
- Plant response rating, Sedge, Umbrella [18]: 0
- Plant response rating, Ducksalad [19]: 0
- Plant response rating, Barnyardgrass [20]: 0

SMILES: FCc1cccc(Oc2ncc(Br)cn2)c1-n1cc(Br)cn1 [Compound 125]
- Barnyardgrass plant response rating (0 to 100 scale) ([1]; 31 g ai/ha): 10
- Plant response rating, Barnyardgrass ([1]; 125 g ai/ha): 80
- Kochia plant response rating (0 to 100 scale) ([2]; 31 g ai/ha): 20
- Plant response rating, Kochia ([2]; 125 g ai/ha): 50
- Ragweed plant response rating (0 to 100 scale) ([3]; 31 g ai/ha): 0
- Plant response rating, Ragweed ([3]; 125 g ai/ha): 10
- Ryegrass, Italian plant response rating (0 to 100 scale) ([4]; 31 g ai/ha): 0
- Plant response rating, Ryegrass, Italian ([4]; 125 g ai/ha): 20
- Foxtail, Giant plant response rating (0 to 100 scale) ([5]; 31 g ai/ha): 20
- Plant response rating, Foxtail, Giant ([5]; 125 g ai/ha): 100
- Pigweed plant response rating (0 to 100 scale) ([6]; 31 g ai/ha): 70
- Plant response rating, Pigweed ([6]; 125 g ai/ha): 100
- Plant response rating, Barnyardgrass ([7]; 31 g ai/ha): 0
- Barnyardgrass plant response rating [7, 22]: 90
- Plant response rating, Kochia ([8]; 31 g ai/ha): 40
- Kochia plant response rating [8, 22]: 40
- Plant response rating, Ragweed ([9]; 31 g ai/ha): 0
- Ragweed plant response rating [9, 22]: 10
- Plant response rating, Ryegrass, Italian ([10]; 31 g ai/ha): 0
- Ryegrass, Italian plant response rating [10, 22]: 10
- Plant response rating, Foxtail, Giant ([11]; 31 g ai/ha): 0
- Foxtail, Giant plant response rating [11, 22]: 80
- Plant response rating, Pigweed ([12]; 31 g ai/ha): 30
- Pigweed plant response rating [12, 22]: 70
- Plant response rating, Wheat ([13]; 31 g ai/ha): 0
- Wheat plant response rating [13, 22]: 20
- Plant response rating, Corn ([14]; 31 g ai/ha): 20
- Corn plant response rating [14, 22]: 50
- Plant response rating, Blackgrass ([15]; 31 g ai/ha): 40
- Blackgrass plant response rating [15, 22]: 80
- Plant response rating, Galium ([16]; 31 g ai/ha): 20
- Galium plant response rating [16, 22]: 90
- Plant response rating, Rice [17]: 0
- Plant response rating, Sedge, Umbrella [18]: 70
- Plant response rating, Ducksalad [19]: 70
- Plant response rating, Barnyardgrass [20]: 0

SMILES: COC(=O)c1cccc(Oc2ncc(Cl)cn2)c1-n1cc(C(F)(F)F)cn1 [Compound 248]
- Barnyardgrass plant response rating [1, 23]: 80
- Kochia plant response rating [2, 23]: 100
- Ragweed plant response rating [3, 23]: 40
- Ryegrass, Italian plant response rating [4, 23]: 50
- Foxtail, Giant plant response rating [5, 23]: 100
- Pigweed plant response rating [6, 23]: 100
- Plant response rating, Barnyardgrass ([7]; 1000 g ai/ha): 70
- Plant response rating, Kochia ([8]; 1000 g ai/ha): 90
- Plant response rating, Ragweed ([9]; 1000 g ai/ha): 50
- Plant response rating, Ryegrass, Italian ([10]; 1000 g ai/ha): 50
- Plant response rating, Foxtail, Giant ([11]; 1000 g ai/ha): 100
- Plant response rating, Pigweed ([12]; 1000 g ai/ha): 100
- Plant response rating, Wheat ([13]; 1000 g ai/ha): 20
- Plant response rating, Corn ([14]; 1000 g ai/ha): 80
- Plant response rating, Blackgrass ([15]; 1000 g ai/ha): 30
- Plant response rating, Galium ([16]; 1000 g ai/ha): 100
- Plant response rating, Rice [17]: 15
- Plant response rating, Sedge, Umbrella [18]: 70
- Plant response rating, Ducksalad [19]: 50
- Plant response rating, Barnyardgrass [20]: 0
